Measured values published in patent publication US4772615A, “Various N-substituted 3-piperidine carboxylic acids or N-substituted 3-pyridinecarboxylic acids and derivatives thereof” (Warner-Lambert Company, priority 1987, dated 1988).
Structures can show the parent of a compound that is named as a salt. Where two headings read alike, the source gives them in different places.

What was measured:
[1] = test system: tonic hindlimb extensor seizures; experiment: Threshold Maximal Electroshock (animal model for generalized seizures); assay type: in vivo, Male CF-1 mice; details: Mus musculus, ip, 0.5 h
Description: Male CF-1 mice (22-30 grams) are allowed free access to food and water prior to testing. For screening, groups of five mice are given a compound intraperitoneally at doses of 30, 100, and 300 mg/kg and tested at 0.5, 2.0, and 4.0 hr after dosing. Drugs are either dissolved in 0.9% saline or suspended in 0.2% methylcellulose. Animals are shocked with corneal electrodes (see below) and observed for tonic hindlimb extensor seizures. Absence of hindlimb extension is taken as an anticonvulsant effect.
The electroshock apparatus delivers a 60 Hz sine wave with a current amplitude of 14 mA (peak-to-peak) for 0.2 seconds. The current strength of 14 mA used in this procedure produces tonic extensor seizures in approximately 95% of untreated mice, but is only slightly above threshold for tonic extension.

[2] = test system: uptake of the neurotransmitter gamma-amino-butyric acid (GABA) into slices of rat hippocampal (brain) tissue; experiment: Uptake of 3H-GABA into slices (prisms) of rat hippocampus in vitro; assay type: biochemical, Male Long Evans rats; details: 3H-GABA 0.05 μM; 10 mg tissue, 15 min with test compound at 37° C., 2 min uptake; read-out: IC50 (Calculated Median (50%) Inhibitory Concentration)
Description: The compounds of formula I are tested for pharmacological activity using three procedures. The first is an assay for the uptake of the neurotransmitter gamma-amino-butyric acid (GABA) into slices of rat hippocampal (brain) tissue incubated in vitro analogous to those described by Johnston, GAR, et al, in J. Neurochem. 26:1029-1032 (1976) entitled "Inhibition of the Uptake of GABA and Related Amino Acids in Rat Brain Slices by the Optical Isomers of Nipecotic Acid." Methods for this test are described in the following paragraph.
Male Long Evans rats (200-300 g) were sacrificed by decapitation, the brains quickly removed and the hippocampi were dissected out. Slices were cut (0.1×0.1 mm) on a McIlwain tissue chopper and dispersed in ice-chilled Krebs Ringer HEPES-buffered medium. Normal medium was composed of: NaCl (119 mM), KCl (4.75 mM), CaCl2 (1.25 mM), KH2 PO4 (1.20 mM), MgSO4 (1.18 mM), HEPES (22 mM), EDTA (0.03 mM), ascorbate (0.6 mM), and glucose (10 mM). The pH was adjusted to 7.2 with 3.0M Tris HCl. Following two washes in normal medium, 10 mg of tissue was incubated in a 3 ml volume of medium at 37° C. for 15 min in the presence or absence of test compound. ^3 H-GABA (80.8 Ci/mmole; 0.05 μM final concentration) was added to each flask and the uptake was allowed to proceed for a two min period. At the end of the uptake period, samples were rapidly filtered through Whatman GF/F filters and washed once with 5 ml ice-chilled 0.9% sodium chloride. The filters with tissue were placed into scintillation vials with 2 ml H2 O and allowed to sit for at least 60 min before scintillation fluid was added and samples counted. Blanks were treated in a manner similar to other samples, but were left on ice throughout the experiment. Results are expressed as percent control (no drug present) or IC50 value.
Table I. GABA uptake into prisms of rat hippocampus in vitro in the presence of different concentrations of various synthetic compounds of formula I.

[3] = test system: threshold clonic seizures in mice caused by subcutaneous administration of pentylenetetrazol; experiment: Attenuation of threshold clonic seizures in mice caused by subcutaneous pentylenetetrazol (model for absence type seizures); assay type: in vivo; details: Mus musculus, pentylenetetrazol 85 mg/kg s.c., read-out: Calculated Median Effective Dose (ED50)
Description: A third pharmacological test was performed as described in R. L. Krall et al, Epilepsia, 19:409 (1978), which is incorporated herein by reference. In this procedure, drugs were tested for attenuation of threshold clonic seizures in mice caused by subcutaneous administration of pentylenetetrazol (85 mg/kg) which is a generally accepted model for absence type seizures. Results from the third test for the compound when administered either intraperitoneally (IP) or orally (PO) are shown below in Table III.

[4] = read-out: Number of Animals Protected from Seizures (n/5)
[5] = 30 mg/kg, intraperitoneal, 30 minutes after administration, read-out: Number of Animals Protected from Seizures (n/5)
[6] = 2 h, PO, tested 120 min following dosing

Row | SMILES | responders at 30 mg/kg [1, 4] | responders at 100 mg/kg [1, 4] | IC50 [2] | responders at 30 mg/kg [1, 5] | responders at 100 mg/kg ([1]; 100 mg/kg, intraperitoneal, 30 minutes after administration, read-out: Number of Animals Protected from Seizures (n/5) (converted)) | ED50 [3, 6] | ED50 ([3]; 0.5 h, IP, tested 30 min following dosing)
1 | O=C(O)C1CCCN(CCOC(c2ccc(F)cc2)c2ccc(F)cc2)C1 (centres unmarked) [XIII, 3-Piperidinecarboxylic acid, 1-[2-[bis (4-fluorophenyl)methoxy]ethyl]-, monohydrochloride] | 40% | 40% | – | – | – | – | –
2 | O=C(O)C1CCCN(CCCOC(c2ccccc2)c2ccccc2)C1 (centres unmarked) [VI, 3-Piperidinecarboxylic acid, 1-[3-diphenylmethoxy)propyl]-, monohydrochloride] | – | – | 11000 nM | 0% | 20% | – | –
3 | O=C(O)C1CCCN(CCOC(c2ccc(C(F)(F)F)cc2)c2ccc(C(F)(F)F)cc2)C1 (centres unmarked) [XVIII, 3-Piperidinecarboxylic acid, 1-[2-[bis[4-(trifluoromethyl)phenyl]methoxy]ethyl]-, hydrochloride] | 100% | 100% | 700 nM | – | – | – | –
4 | O=C(O)C1=CCCN(CCOC(c2ccc(Cl)cc2)c2ccc(Cl)cc2)C1 [XIX, 3-Pyridinecarboxylic acid, 1-[2-[bis(4-chlorophenyl)methoxy]ethyl]-1,2,5,6-tetrahydro, hydrochloride] | 80% | 100% | 100 nM | – | – | – | –
5 | CCOC(=O)C1CCCN(CCCOC(c2ccccc2)c2ccccc2)C1 (centres unmarked) [III, 3-Piperidinecarboxylic acid, 1-[3-(diphenylmethoxy)propyl]-, ethyl ester, monohydrochloride] | – | – | – | 0% | – | – | –
6 | Cl.O=C(O)C1=CCCN(CCOC(c2ccc(C(F)(F)F)cc2)c2ccc(C(F)(F)F)cc2)C1 [XVII, 3-Pyridinecarboxylic acid, 1-[2-[bis[4-(trifluoromethyl)phenyl]methoxy]ethyl]-1,2,5,6-tetrahydro-, monohydrochloride] | 80% | 80% | 450 nM | – | – | 0.5 mg/kg | –
7 | O=C(O)C1CCCN(CCOC(c2ccccc2)c2ccc(Cl)c(C(F)(F)F)c2)C1 (centres unmarked) [X, 3-Piperidinecarboxylic acid, 1-[2-[[4-chloro-3-(trifluoromethyl)phenyl]phenylmethoxy]ethyl]monohydrochloride] | 20% | 100% | 860 nM | – | – | – | –
8 | O=C(O)C1CCCN(CCOC2c3ccccc3C=Cc3ccccc32)C1 (centres unmarked) [XI, 3-Piperidinecarboxylic acid, 1-[2-[(5H-dibenzo[a,d]cyclohepten-5-yloxy)ethyl]]-] | 20% | 40% | – | – | – | – | –
9 | CCOC(=O)C1CCCN(CCOC(c2ccccc2)c2ccccc2)C1 (centres unmarked) [II, 3-Piperidinecarboxylic acid, 1-[2-(diphenylmethoxy)ethyl]-, ethyl ester] | 20% | 80% | ~35000 nM | – | – | – | –
10 | CCOC(=O)C1CCCN(CCOC(c2ccc(Cl)cc2)c2ccc(Cl)cc2)C1 (centres unmarked) [Example I, 3-Piperidinecarboxylic acid 1-[2-[bis-(4-chlorophenyl)methoxy]ethyl]-, ethyl ester] | 0% | 60% | 12000 nM | – | – | – | –
11 | Cl.O=C(O)C1CCCN(CCOC(c2ccccc2)c2ccccc2)C1 (centres unmarked) [VII, 3-Piperidinecarboxylic acid, 1-[2-(diphenylmethoxy)ethyl]-, monohydrochloride] | 25% | 50% | 3000 nM | – | – | – | 1.9 mg/kg
12 | CCOC(=O)C1CCCN(CCSC(c2ccccc2)c2ccccc2)C1 (centres unmarked) [IV, 3-Piperidinecarboxylic acid, 1-[2-[(diphenylmethyl)thio]ethyl]-, ethyl ester] | – | – | ~60000 nM | – | – | – | –
13 | O=C(O)C1CCCN(CCOC(c2ccccc2)c2ccc(Cl)c(Cl)c2)C1 (centres unmarked) [Example IX, 3-Piperidinecarboxylic acid, 1-[2-[(3,4-dichlorophenyl)phenylmethoxy]ethyl]-, monohydrochloride] | 60% | 80% | – | – | – | – | –
14 | O=C(O)C1CCCN(CCOC(c2ccc(Cl)cc2)c2ccc(Cl)cc2)C1 (centres unmarked) [VIII, 3-piperidinecarboxylic acid, 1-[2-[bis(4-chlorophenyl)methoxy]ethyl]monohydrochloride] | 80% | 80% | 290 nM | – | – | 0.54 mg/kg | –
